Test results: PubChem BioAssay (NCI)
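Five compound concentrations were applied to cells in 96-well plates for 48 hours; endpoints were derived by simple linear interpolation of the resulting dose-response curve. TGI denotes the concentration required for complete inhibition of growth.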

Columns and labels:
Experiment in all cases: NCI tumour cell line growth inhibition, 48 h
786-0 renal = system: 786-0 renal
A498 renal = system: A498 renal
A549 NSCLC = system: A549 NSCLC
ACHN renal = system: ACHN renal
CAKI-1 renal = system: CAKI-1 renal
CCRF-CEM leukemia = system: CCRF-CEM leukemia
COLO 205 colon = system: COLO 205 colon
DLD-1 colon = system: DLD-1 colon
DMS 114 small cell lung = system: DMS 114 small cell lung
DMS 273 small cell lung = system: DMS 273 small cell lung
EKVX NSCLC = system: EKVX NSCLC
HCC-2998 colon = system: HCC-2998 colon
HCT-116 colon = system: HCT-116 colon
HCT-15 colon = system: HCT-15 colon
HL-60(TB) leukemia = system: HL-60(TB) leukemia
HOP-92 NSCLC = system: HOP-92 NSCLC
HT29 colon = system: HT29 colon
IGROV1 ovarian = system: IGROV1 ovarian
KM12 colon = system: KM12 colon
KM20L2 colon = system: KM20L2 colon
LOX IMVI melanoma = system: LOX IMVI melanoma
LXFL 529 NSCLC = system: LXFL 529 NSCLC
M19-MEL melanoma = system: M19-MEL melanoma
MALME-3M melanoma = system: MALME-3M melanoma
MOLT-4 leukemia = system: MOLT-4 leukemia
NCI-H226 lung = system: NCI-H226 lung
NCI-H23 lung = system: NCI-H23 lung
NCI-H460 lung = system: NCI-H460 lung
NCI-H522 lung = system: NCI-H522 lung
OVCAR-3 ovarian = system: OVCAR-3 ovarian
OVCAR-5 ovarian = system: OVCAR-5 ovarian
OVCAR-8 ovarian = system: OVCAR-8 ovarian
RXF 393 renal = system: RXF 393 renal
SF-268 CNS = system: SF-268 CNS
SF-295 CNS = system: SF-295 CNS
SF-539 CNS = system: SF-539 CNS
SK-MEL-28 melanoma = system: SK-MEL-28 melanoma
SK-MEL-5 melanoma = system: SK-MEL-5 melanoma
SK-OV-3 ovarian = system: SK-OV-3 ovarian
SN12C renal = system: SN12C renal
SNB-19 CNS = system: SNB-19 CNS
SNB-75 CNS = system: SNB-75 CNS
SNB-78 CNS = system: SNB-78 CNS
SR leukemia = system: SR leukemia
SW-620 colon = system: SW-620 colon
TK-10 renal = system: TK-10 renal
U251 CNS = system: U251 CNS
UACC-257 melanoma = system: UACC-257 melanoma
UACC-62 melanoma = system: UACC-62 melanoma
UO-31 renal = system: UO-31 renal
XF 498 CNS = system: XF 498 CNS

Measured: TGI

C[C@]12CCC(=O)C=C1CC[C@@H]1[C@@H]2[C@@H](O)C[C@@]2(C)[C@H]1CC[C@]2(O)C(=O)COC(=O)CCC1CCCC1
> 100 µM: all assays above
